Laboratory results taken from PubChem BioAssay (NCI).
“And” between values parts separate entries of the source, which are not always exact repeats. Equal entries are not always repeated.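 These data come from cells grown in 96-well plates and exposed to compound for 48 hours at five concentrations. The concentration for full growth arrest is given as TGI.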

Experiments:
Test in all cases: DTP human tumour cell line panel, 48 h
[1] = system: A549 NSCLC
[2] = system: SF-268 CNS
[3] = system: HOP-62 NSCLC
[4] = system: OVCAR-3 ovarian
[5] = system: RPMI-8226 leukemia
[6] = system: LOX IMVI melanoma
[7] = system: UACC-257 melanoma
[8] = system: OVCAR-4 ovarian
[9] = system: HT29 colon
[10] = system: SK-MEL-2 melanoma
[11] = system: NCI/ADR-RES ovarian
[12] = system: SNB-19 CNS
[13] = system: A498 renal
[14] = system: NCI-H23 lung
[15] = system: MDA-N

| Structure (SMILES) | TGI [1] | TGI [2] | TGI [3] | TGI [4] | TGI [5] | TGI [6] | TGI [7] | TGI [8] | TGI [9] | TGI [10] | TGI [11] | TGI [12] | TGI [13] | TGI [14] | TGI [15] |
| --- | --- | --- | --- | --- | --- | --- | --- | --- | --- | --- | --- | --- | --- | --- | --- |
| Cn1c2c(c3c(=O)[nH]ncc31)CCCc1ccccc1-2 | > 100 µM | 98.8 µM | > 100 µM | 86.4 µM | 40.2 µM | 46.1 µM | > 100 µM | > 100 µM | > 100 µM | 40.2 µM | > 100 µM | > 100 µM | 57.3 µM | > 100 µM | – |
| CN1C(=O)C(O)C[C@@H]1c1ccc(F)cc1 (some centres undefined) | > 100 µM | – | > 100 µM | > 100 µM | > 100 µM | > 100 µM | > 100 µM | > 100 µM | > 100 µM | > 100 µM | – | > 100 µM | – | > 100 µM | > 100 µM |
| CCO/N=C(/CC)c1ccc(Br)s1 | > 100 µM | > 100 µM | > 100 µM | > 100 µM | – | > 100 µM | > 100 µM | > 100 µM | > 100 µM | > 100 µM | > 100 µM | > 100 µM | > 100 µM | > 100 µM | > 100 µM |
| Cc1ccc(NCc2nnc3c(-c4ccccc4)nc4ccccc4n23)cc1 | > 100 µM | > 100 µM | > 100 µM | > 100 µM | – | 71.1 µM | > 100 µM | > 100 µM | > 100 µM | 65.5 µM | > 100 µM | > 100 µM | > 100 µM | – | > 100 µM |
| O=c1c2cc([N+](=O)[O-])cnc2sn1-c1ccc(Br)cc1 | > 100 µM | 75.1 µM | > 100 µM | > 100 µM | > 100 µM | 52.5 µM | > 100 µM | 82 µM | 79.2 µM | 85.5 µM | > 100 µM | > 100 µM | – | > 100 µM | > 100 µM |
| COC(=O)/C=C/N1CC1 | > 10 µM | > 10 µM | > 10 µM | > 10 µM | > 10 µM | – | > 10 µM | > 10 µM | > 10 µM | > 10 µM | > 10 µM | > 10 µM | – | > 10 µM | – |
| CC(C)[Si](OC1=CCC[C@H]2NC(=O)[C@@H](Cc3ccc([N+](=O)[O-])cc3)[C@@]12C)(C(C)C)C(C)C | 5.17 µM | 24.8 µM | 17.3 µM | 11.7 µM | – | 15.8 µM | 17.8 µM | 17.1 µM | 5.13 µM | 28 µM | 28 µM | 25.9 µM | – | 18.6 µM | 18 µM |
| CC(=O)Oc1cc2c(n(C)c1=O)CCC2 | > 100 µM | > 100 µM | > 100 µM | – | – | > 100 µM | > 100 µM | > 100 µM | > 100 µM | > 100 µM | > 100 µM | > 100 µM | > 100 µM | > 100 µM | – |
| O=c1[nH]c(Br)nc2c(N3CCCCC3)c[nH]c12 | > 100 µM | > 100 µM | > 100 µM | > 100 µM | > 100 µM | > 100 µM | > 100 µM | > 100 µM | > 100 µM | > 100 µM | – | > 100 µM | > 100 µM | > 100 µM | – |
| Cc1cc2nc3c(C#N)c4c(c(Nc5ccc(Cl)cc5)n3c2cc1C)CCC4 | – | 33.6 µM | > 100 µM | 35.4 µM | 32.7 µM | 32.8 µM | 76.6 µM | > 100 µM | 32 µM | – | 48.1 µM | – | > 100 µM | 57.2 µM | – |
| COC1=CC(=O)C2C(C1=O)[C@@H]1c3ccccc3OC[C@H]21 (some centres undefined) | > 100 µM | > 100 µM | > 100 µM | > 100 µM | > 100 µM | > 100 µM | – | > 100 µM | > 100 µM | > 100 µM | – | > 100 µM | > 100 µM | > 100 µM | – |
| COc1cccc(-c2cc(=O)c3cc(N4CCCC4)ccc3[nH]2)c1 | > 10 µM | > 10 µM | > 10 µM | < 0.001 µM | 2.44 µM | 0.00131 µM | > 10 µM | > 10 µM | – | – | < 0.001 µM | < 0.001 µM | – | 0.0962 µM | < 0.001 µM |
| COc1cc(C2SC(N)=Nc3c2c(C)nn3C(=O)c2ccc(Cl)cc2)ccc1O (centres undefined) | > 10 µM | > 10 µM | > 10 µM | > 10 µM | > 10 µM | > 10 µM | > 10 µM | > 10 µM | > 10 µM | > 10 µM | > 10 µM | > 10 µM | – | > 10 µM | 0.406 µM |
| Cc1nc2c(s/c(=N\N)n2-c2ccccc2)c(=O)n1C | > 100 µM | > 100 µM | – | – | > 100 µM | > 100 µM | > 100 µM | > 100 µM | > 100 µM | > 100 µM | – | > 100 µM | > 100 µM | > 100 µM | – |
| CCN1CCC(O)(/C=C/c2ccc(Cl)cc2)C(C(=O)/C=C/c2ccc(Cl)cc2)C1 (centres undefined) | 92.5 µM | > 100 µM | > 100 µM | 40.2 µM | – | 32.4 µM | 35.5 µM | 96 µM | 42.8 µM | > 100 µM | – | > 100 µM | 34.2 µM | 45.6 µM | – |
| COc1cc(OC)cc(Oc2nc3c(N)cc(C(F)(F)F)cc3nc2-c2ccccc2)c1 | – | > 100 µM | > 100 µM | – | 77.7 µM | 45.9 µM | > 100 µM | > 100 µM | > 100 µM | 55.5 µM | > 100 µM | > 100 µM | > 100 µM | > 100 µM | – |
| OCC(O)C(O)C(C=NNc1ncnc2ccc(Br)cc12)=NNc1ncnc2ccc(Br)cc12 (centres undefined) | 60.7 µM and > 100 µM | 25 µM and > 100 µM | 25 µM and > 100 µM | 28.2 µM and > 100 µM | > 100 µM | 14.9 µM and > 100 µM | > 100 µM | 23.7 µM and > 100 µM | > 100 µM | 12.1 µM and > 100 µM | – | > 100 µM | 18 µM and 75.2 µM | – | > 100 µM |
